The values below come from US4843085A, “Pyridine derivatives, process for production thereof and pharmaceutical compositions useful as anti-arhytmics” (Yamanouchi Pharmaceutical Co., Ltd., priority 1987, dated 1989).

Where a name gives a salt, the structure may show the parent alone.

This test concerns corneal reflex responses. The test is described as follows: Local anesthetic activity (corneal reflex responses). The settings on record: instilled into the cornea, guinea-pigs. In kind it is in vivo, guinea-pigs (male Hartley strain). Here is the method:
Solutions of the compounds were instilled into the cornea, and the corneal reflex responses were determined.
With `COC(=O)c1c(C)nc(C)c(C(=O)OC)c1-c1cc([N+](=O)[O-])ccc1OCCCCNC[C@@H](O)COc1ccccc1` [Example 2, Dimethyl 4-[2-[4-[[(R)-2-hydroxy-3-phenoxypropyl]amino]butoxy]-5-nitrophenyl]-2,6-dimethylpyridine-3,5-dicarboxylate oxalate], the “ED50 (concentration required to inhibit corneal reflex responses by 50%)” value is listed as 0.32%.

Take `CCN(CC)CC(=O)Nc1c(C)cccc1C` [Lidocaine, reference compound]: the “ED50 (concentration required to inhibit corneal reflex responses by 50%)” value is on record as 0.82%.

On to `COC(=O)c1c(C)nc(C)c(C(=O)OC)c1-c1cc([N+](=O)[O-])ccc1OCCCCNC[C@H](O)COc1ccccc1.O=C(O)C(=O)O.O=C(O)C(=O)O` [Example 1, Dimethyl 4-[2-[4-[[(S)-2-hydroxy-3-phenoxypropyl]amino]butoxy]-5-nitrophenyl]-2,6-dimethylpyridine-3,5dicarboxylate dioxalate], for which the “ED50 (concentration required to inhibit corneal reflex responses by 50%)” value is recorded as 0.49%.
